Laboratory results: US11680056B2, “MK2 inhibitors and uses thereof” (Xinthera, Inc., priority 2021, dated 2023)
Read-outs that look alike come from different tables or passages of the source.

Tests used:
p38a/MK2 = p38a/MK2 (Homo sapiens (Human), UniProt P49137+Q16539); assay: p38a/MK2 biochemical assay: activation of MK2 by p38, FITC-HSP27 peptide phosphorylation (IMAP FP); conditions: 10-point 1:3 dilution, 60 pM active p38a, 1 nM inactive MK2, 10 μM ATP, 2 h incubation
Method: (§1) Expression vectors of the recombinant MK2 and PRAK kinases were constructed by cloning of the codon optimized gene sequences of MK2 (Uniprot ID P49137, amino acid fragment F46-H400), or PRAK (Uniprot ID Q81W41, amino acid fragment M1-Q471) into pGEX-4T1 (GE) for over expression of these kinases with N-terminal GST-tag. Protein expression was carried out in E. coli BL21 by growing the hosts in TB medium, induction of protein expression with 0.5 mM IPTG at approximate 0.8 OD600, and incubation of the cultures at 18° C. for 14-20 hours afterwards. The harvested cells were resuspended in […] of Lysis buffer (50 mM Tris-HCl, pH 8.0, 500 mM NaCl, 1 mM DTT, 5% glycerol, and 1 mM PMSF) per gram of wet cell mass and homogenized at 4° C. in a microfluidizer (ATS, Suzhou, China) at 14,000 psi pressure, 3 passes. The cell lysates were clarified by centrifugation and the supernatants containing the GST-fusion proteins were purified by affinity chromatography using GSH-Sepharose (GE) gravity flow columns pre-equilibrated in Buffer A (50 mM Tris-HCl, pH 8.0, 500 mM NaCl, 1 mM DTT, and 5% glycerol). After thorough washing of the columns with Buffer A, the bound GST-proteins were eluted by Buffer B (50 mM Tris, pH 8.0, 500 mM NaCl, 1 mM DTT, 5% glycerol, 10 mM glutathione), followed by size-exclusion purification on Superdex 200 column equilibrated in Buffer A. The purified proteins were concentrated to approximately 1 mg/ml and stored at −80° C.
This study evaluates the inhibitory potency of invention compound on p38/MK2 pathway vs p38/PRAK pathway. More specially the compound concentration (IC50) was determined that inhibited half of the maximal activation of MK2 or PRAK by p38. MK2 activation study was set up without or with a serial of 10-point 1:[…], and PRAK activation study was set up without or with a serial of 10-point 1:3 dilution of invention compound at top dose of 300 μM. The MK2 and PRAK activity were determined by the phosphorylation level of HSP27 peptide conjugated with FITC.
(§2) After 2 h incubation of the reaction mixture with various concentration of invention compound (200 nL), 60 μL 1×IMAP solution Mixture (Molecular Devices, Cat R8127) was added to the reaction mixture and incubated for another half hour. The signal was then read by Synergy™ Neo2 Multi-Mode Microplate Reader with filter setting (Ex/Em=485 nm/FITC FP-P pol 528 nm & FITC FP-S pol 528 nm)
(§3) The signal was then normalized to vehicle control and fitted in Xfit to generate IC50. The selectivity of MK2 over PRAK was calculated by the formular Selectivity=IC50 of PRAK/IC50 of MK2.

p38a/PRAK = p38a/PRAK (Homo sapiens (Human), UniProt Q16539); assay: p38a/PRAK biochemical assay: activation of PRAK by p38, FITC-HSP27 peptide phosphorylation (IMAP FP); conditions: 10-point 1:3 dilution, top dose 300 μM; 60 pM active p38a, 1 nM inactive PRAK, 10 μM ATP, 2 h incubation; read-out: p38a/PRAK Enzyme pIC50 (converted)
Method: as §1
This study evaluates the inhibitory potency of invention compound on p38/MK2 pathway vs p38/PRAK pathway. More specially the compound concentration (IC50) was determined that inhibited half of the maximal activation of MK2 or PRAK by p38. MK2 activation study was set up without or with a serial of 10-point 1:3 dilution of invention compound at top dose of […], and PRAK activation study was set up without or with a serial of 10-point 1:3 dilution of invention compound at top dose of 300 μM. The MK2 and PRAK activity were determined by the phosphorylation level of HSP27 peptide conjugated with FITC.
as §2, §3

[1] = top dose 1 μM, read-out: p38a/MK2 (1 μM) Enzyme pIC50 (converted)
[2] = top dose 10 μM, read-out: p38a/MK2 (10 μM) Enzyme pIC50 (converted)

p38a/PRAK, sequence (Q16539 whole entry): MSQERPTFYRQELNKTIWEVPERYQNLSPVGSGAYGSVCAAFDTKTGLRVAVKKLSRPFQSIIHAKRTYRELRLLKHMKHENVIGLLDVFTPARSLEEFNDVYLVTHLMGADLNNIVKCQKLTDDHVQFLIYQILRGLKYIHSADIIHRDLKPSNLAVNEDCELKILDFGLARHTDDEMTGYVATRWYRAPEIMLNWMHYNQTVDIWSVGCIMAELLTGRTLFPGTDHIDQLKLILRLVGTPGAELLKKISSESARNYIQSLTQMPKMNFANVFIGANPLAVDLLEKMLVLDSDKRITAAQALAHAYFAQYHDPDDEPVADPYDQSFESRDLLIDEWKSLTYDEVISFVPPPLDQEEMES
p38a/MK2, sequence (P49137 46-400): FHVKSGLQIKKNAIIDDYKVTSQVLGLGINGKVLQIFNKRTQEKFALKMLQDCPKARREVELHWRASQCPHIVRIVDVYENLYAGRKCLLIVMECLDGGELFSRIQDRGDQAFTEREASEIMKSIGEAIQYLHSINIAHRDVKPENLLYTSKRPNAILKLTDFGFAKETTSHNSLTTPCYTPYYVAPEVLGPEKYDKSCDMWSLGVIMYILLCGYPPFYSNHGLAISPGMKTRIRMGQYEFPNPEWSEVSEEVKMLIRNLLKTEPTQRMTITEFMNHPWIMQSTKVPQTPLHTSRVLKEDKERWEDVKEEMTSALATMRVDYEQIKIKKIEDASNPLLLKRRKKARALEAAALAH
p38a/MK2, sequence (Q16539 whole entry, the tested form may be a part): as the sequence (Q16539 whole entry) above

Row | IC50 (p38a/MK2; [1]) [nM] | IC50 (p38a/PRAK) [µM] | SMILES | IC50 (p38a/MK2; [2]) [nM] | p38a/MK2 (10 μM) Enzyme pIC50 (p38a/MK2; top dose 10 μM)
1 | 79.4 | 5.01 | Cc1cnc(-c2cncc(C(C)(C)O)n2)cc1-n1c(C)cc(OCc2ncc(F)cc2F)c(Cl)c1=O (single isomer, unassigned) [Example 51A, rel-3-chloro-4-[(3,5-difluoropyridin-2-yl)methoxy]-2′-[6-(2-hydroxypropan-2-yl)pyrazin-2-yl]-5′,6-dimethyl-[1,4′-bipyridin]-2-one] | – | –
2 | > 1000 | > 316 | Cc1cnc(-c2ccnc(C(C)(C)O)c2F)cc1-n1c(C)cc(OCc2ncc(F)cc2F)c(Cl)c1=O (atropisomer, axis not shown) [Example 56B, 3-chloro-4-[(3,5-difluoropyridin-2-yl)methoxy]-1-[3′-fluoro-2′-(2-hydroxypropan-2-yl)-5-methyl-[2,4′-bipyridin]-4-yl]-6-methylpyridin-2-one] | – | –
3 | 3.98 | 3.16 | Cc1cnc(-n2ccc(C(C)(C)O)n2)cc1-n1c(C)cc(OCc2ncc(F)cc2F)c(Cl)c1=O (single isomer, unassigned) [Example 9A, rel-3-chloro-4-((3,5-difluoropyridin-2-yl)methoxy)-2′-(3-(2-hydroxypropan-2-yl)-1H-pyrazol-1-yl)-5′,6-dimethyl-2H-[1,4′-bipyridin]-2-one] | – | –
4 | > 1000 | > 316 | Cc1cnc(-c2cncc(C(C)(C)O)n2)cc1-n1c(C)cc(OCc2ncc(F)cc2F)c(Cl)c1=O (single isomer, unassigned) [Example 51B, rel-3-chloro-4-[(3,5-difluoropyridin-2-yl)methoxy]-2′-[6-(2-hydroxypropan-2-yl)pyrazin-2-yl]-5′,6-dimethyl-[1,4′-bipyridin]-2-one] | – | –
5 | 63.1 | 10 | COCC(C)(O)c1nccc(-c2cc(-n3c(C)cc(OCc4ncc(F)cc4F)c(Cl)c3=O)c(C)cn2)n1 (racemic) [Example 55, 3-chloro-4-[(3,5-difluoropyridin-2-yl)methoxy]-2′-[2-(2-hydroxy-1-methoxypropan-2-yl)pyrimidin-4-yl]-5′,6-dimethyl-[1,4′-bipyridin]-2-one] | – | –
6 | – | 63.1 | COc1cnc(-c2ccnc(C(C)(C)O)n2)cc1-n1c(C)cc(OCc2ncc(F)cc2F)c(Cl)c1=O (atropisomer, axis not shown) [Example 7, 3-chloro-4-[(3,5-difluoropyridin-2-yl)methoxy]-2′-[2-(2-hydroxypropan-2-yl)pyrimidin-4-yl]-5′-methoxy-6-methyl-[1,4′-bipyridin]-2-one] | 501 | –
7 | 3.16 | 0.631 | [2H]C([2H])(Oc1cc(C)n(-c2c(C)cnc(-c3ccnc(CC4(O)CC4)n3)c2F)c(=O)c1Cl)c1ncc(F)cc1F (single isomer, unassigned) [Example 61B, rel-3-chloro-4-((3,5-difluoropyridin-2-yl)methoxy-d2)-3′-fluoro-2′-(2-((1-hydroxycyclopropyl)methyl)pyrimidin-4-yl)-5′,6-dimethyl-2H-[1,4′-bipyridin]-2-one] | – | –

Row | SMILES | IC50 (p38a/MK2; [1]) [nM] | IC50 (p38a/PRAK) [µM] | IC50 (p38a/MK2; [2]) [nM] | p38a/MK2 (10 μM) Enzyme pIC50 (p38a/MK2; top dose 10 μM)
8 | Cc1cnc(-c2cccc([C@H](O)CO)n2)cc1-n1c(C)cc(OCc2ncc(F)cc2F)c(Cl)c1=O (single isomer, unassigned) [Example 34C, rel-3-chloro-4-[(3,5-difluoropyridin-2-yl)methoxy]-2′-[6-(1,2-dihydroxyethyl)pyridin-2-yl]-5′,6-dimethyl-[1,4′-bipyridin]-2-one] | – | > 316 | 2000 | –
9 | Cc1sc(-c2ccnc(C(C)(C)O)n2)cc1-n1c(C)cc(OCc2ncc(F)cc2F)c(Cl)c1=O (single isomer, unassigned) [Example 33B, 3-chloro-4-[(3,5-difluoropyridin-2-yl)methoxy]-1-{5-[2-(2-hydroxypropan-2-yl)pyrimidin-4-yl]-2-methylthiophen-3-yl}-6-methylpyridin-2-one] | – | 50.1 | – | 6.5
10 | Cc1cnnc(COc2cc(C)n(-c3cc(-c4ccnc(C(C)(C)O)n4)ncc3C)c(=O)c2Cl)c1 [Example 28A, rel-3-chloro-2′-[2-(2-hydroxypropan-2-yl)pyrimidin-4-yl]-5′,6-dimethyl-4-[(5-methylpyridazin-3-yl)methoxy]-[1,4′-bipyridin]-2-one] | – | > 316 | 3980 | –
